Measurements published in paper PMC9471048, “The signaling and selectivity of α‐adrenoceptor agonists for the human α2A, α2B and α2C‐adrenoceptors and comparison with human α1 and β‐adrenoceptors” (Pharmacology Research & Perspectives, 2022).
Where two headings read alike, the source gives them in different places.

Legend:
human α2C‐adrenoceptor [1] = molecular target: T1, human α2C‐adrenoceptor (Homo sapiens, UniProt P18825)
T1 sequence (P18825 1-462): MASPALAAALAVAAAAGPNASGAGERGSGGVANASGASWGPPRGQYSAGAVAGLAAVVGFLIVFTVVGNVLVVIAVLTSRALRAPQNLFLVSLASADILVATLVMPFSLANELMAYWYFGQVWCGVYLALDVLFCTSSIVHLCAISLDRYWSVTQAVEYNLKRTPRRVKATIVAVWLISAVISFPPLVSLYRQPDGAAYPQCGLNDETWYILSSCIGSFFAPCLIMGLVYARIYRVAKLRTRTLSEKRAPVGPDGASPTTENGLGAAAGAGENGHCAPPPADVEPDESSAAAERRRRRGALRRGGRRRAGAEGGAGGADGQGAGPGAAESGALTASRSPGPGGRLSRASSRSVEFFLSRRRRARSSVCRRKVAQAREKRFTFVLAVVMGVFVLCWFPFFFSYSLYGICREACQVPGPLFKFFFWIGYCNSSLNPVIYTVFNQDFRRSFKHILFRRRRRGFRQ

human α2C‐adrenoceptor [2] = molecular target: T1, human α2C‐adrenoceptor; assay: 3H‐rauwolscine whole cell binding in CHO‐α2C cells; set-up: expressed in transfected cells; host or cells: CHO-K1 with CRE-SPAP reporter
human α2C‐adrenoceptor [3] = molecular target: T1, human α2C‐adrenoceptor; assay: ERK1/2‐phosphorylation in CHO‐α2C cells; assay type: cell-based; set-up: expressed in transfected cells; host or cells: CHO-K1 with CRE-SPAP reporter
human α2A‐adrenoceptor [4] = molecular target: T2, human α2A‐adrenoceptor (Homo sapiens, UniProt P08913)
T2 sequence (P08913 1-465): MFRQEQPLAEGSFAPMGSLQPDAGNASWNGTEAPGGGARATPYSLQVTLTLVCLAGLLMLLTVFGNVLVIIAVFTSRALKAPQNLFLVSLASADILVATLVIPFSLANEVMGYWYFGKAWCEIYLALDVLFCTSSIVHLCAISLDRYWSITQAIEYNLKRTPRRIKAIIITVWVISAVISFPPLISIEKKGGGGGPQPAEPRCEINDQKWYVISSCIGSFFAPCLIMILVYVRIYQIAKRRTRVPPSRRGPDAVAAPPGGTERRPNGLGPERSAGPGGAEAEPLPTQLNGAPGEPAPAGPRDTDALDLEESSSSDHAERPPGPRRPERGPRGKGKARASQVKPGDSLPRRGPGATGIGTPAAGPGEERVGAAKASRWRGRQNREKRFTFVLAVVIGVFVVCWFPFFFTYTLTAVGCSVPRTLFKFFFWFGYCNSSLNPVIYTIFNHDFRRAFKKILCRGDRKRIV

human α2A‐adrenoceptor [5] = molecular target: T2, human α2A‐adrenoceptor; assay: ERK1/2‐phosphorylation in CHO‐α2A cells; assay type: cell-based; set-up: expressed in transfected cells; host or cells: CHO-K1 with CRE-SPAP reporter
human α2A‐adrenoceptor [6] = molecular target: T2, human α2A‐adrenoceptor; assay: 3H‐rauwolscine whole cell binding in CHO‐α2A cells; set-up: expressed in transfected cells; host or cells: CHO-K1 with CRE-SPAP reporter
[7] = CHO‐α2C cells, % inhibition from the 3 μM forskolin control, mean ± SEM
[8] = CHO‐α2C cells, CRE‐SPAP production in the absence of forskolin
[9] = CHO‐α2C cells, inhibition of 3 μM forskolin‐stimulated CRE‐SPAP production, given as negative log IC50, mean ± SEM
[10] = CHO‐α2C cells, 3H‐rauwolscine whole cell binding, given as negative log KD, mean only (SEM in Table 4)
[11] = CHO‐α2C cells, maximum response compared to 10 μM PDBu, mean ± SEM
[12] = CHO‐α2C cells, given as negative log EC50, mean ± SEM

C=CCN1CCc2nc(N)sc2CC1 [BHT920]
% inhibition, CRE‐SPAP (with forskolin) (human α2C‐adrenoceptor [1]): 86.8 ± 6.0% | Log EC50 (Gs), CRE‐SPAP (without forskolin) (human α2C‐adrenoceptor [1]): No response | Log IC50 (Gi), CRE‐SPAP (with forskolin) (human α2C‐adrenoceptor [1]): −7.41 ± 0.10 | Log efficacy ratio (KD/IC50) (human α2C‐adrenoceptor [1]): 1.42 | Log KD (human α2C‐adrenoceptor [2]): −5.99 | % 10 μM PDBu, ERK1/2‐phosphorylation (human α2C‐adrenoceptor [3]): 144.8 ± 23.2% | Log EC50, ERK1/2‐phosphorylation (human α2C‐adrenoceptor [3]): −8.18 ± 0.12

COC(=O)[C@@H]1[C@H]2C[C@H]3c4[nH]c5ccccc5c4CCN3C[C@@H]2CC[C@@H]1O [yohimbine]
Schild slope (Gi), dexmedetomidine as agonist (human α2A‐adrenoceptor [4]): 1.11 ± 0.07 | Schild slope, inhibitory (Gi) component (human α2A‐adrenoceptor [4]): 1.00 ± 0.08 | Schild slope, stimulatory (Gs) component (human α2A‐adrenoceptor [4]): 0.92 ± 0.11

CCN1CCc2nc(N)oc2CC1 [BHT933]
Log efficacy ratio (KD/IC50) (human α2C‐adrenoceptor [1]): 0.62 | % inhibition, CRE‐SPAP (with forskolin) (human α2C‐adrenoceptor [1]; [7]): 86.0 ± 4.6% | Log EC50 (Gs), CRE‐SPAP (without forskolin) (human α2C‐adrenoceptor [1]; [8]): No response | Log IC50 (Gi), CRE‐SPAP (with forskolin) (human α2C‐adrenoceptor [1]; [9]): −5.94 ± 0.08 | Log KD (human α2C‐adrenoceptor [2]; [10]): −5.32 | % 10 μM PDBu, ERK1/2‐phosphorylation (human α2C‐adrenoceptor [3]; [11]): 150.0 ± 19.7% | Log EC50, ERK1/2‐phosphorylation (human α2C‐adrenoceptor [3]; [12]): −6.63 ± 0.18

CCc1cccc(CC)c1NC1=NCCN1 [ST‐91]
Log efficacy ratio (KD/IC50) (human α2C‐adrenoceptor [1]): 1.28 | % inhibition, CRE‐SPAP (with forskolin) (human α2C‐adrenoceptor [1]; [7]): 76.5 ± 4.4% | Log EC50 (Gs), CRE‐SPAP (without forskolin) (human α2C‐adrenoceptor [1]; [8]): No response | Log IC50 (Gi), CRE‐SPAP (with forskolin) (human α2C‐adrenoceptor [1]; [9]): −7.46 ± 0.09 | Log KD (human α2C‐adrenoceptor [2]; [10]): −6.18 | % 10 μM PDBu, ERK1/2‐phosphorylation (human α2C‐adrenoceptor [3]; [11]): 154.0 ± 15.0% | Log EC50, ERK1/2‐phosphorylation (human α2C‐adrenoceptor [3]; [12]): −7.93 ± 0.17

NC[C@H](O)c1ccc(O)c(O)c1 [Noradrenaline]
% 3 μM forskolin, CRE‐SPAP (without forskolin) (human α2A‐adrenoceptor [4]; CHO‐α2A (cell line 1), maximum response compared to 3 μM forskolin): 171.5 ± 11.1% | IC50 (human α2C‐adrenoceptor [1]): 309 nM | % inhibition, CRE‐SPAP (with forskolin) (human α2C‐adrenoceptor [1]; [7]): 83.0 ± 3.1% | Log EC50 (Gs), CRE‐SPAP (without forskolin) (human α2C‐adrenoceptor [1]; [8]): No response | Kd (human α2C‐adrenoceptor [2]; 3H‐rauwolscine whole cell binding, living cells, negative log KD, mean ± SEM, read-out: Log KD, CHO‐α2C (converted)): 32.4 µM | Kd (human α2C‐adrenoceptor [2]; CHO‐α2C cells, 3H‐rauwolscine whole cell binding, given as negative log KD, mean only (SEM in Table 4), read-out: Log KD (converted)): 32.4 µM | % 10 μM PDBu, ERK1/2‐phosphorylation (human α2A‐adrenoceptor [5]; CHO‐α2A, maximum response compared to 10 μM PDBu): 121.9 ± 6.3% | % 10 μM PDBu, ERK1/2‐phosphorylation (human α2C‐adrenoceptor [3]; [11]): 142.3 ± 10.7%

C=CCc1ccccc1OC(C)C1=NCCN1 (centres unmarked) [Allyphenyline]
% inhibition, CRE‐SPAP (with forskolin) (human α2A‐adrenoceptor [4]): 50.6 ± 6.3% | % inhibition, CRE‐SPAP (with forskolin) (human α2C‐adrenoceptor [1]): 66.8 ± 4.7% | IC50 (human α2C‐adrenoceptor [1]): 63.1 nM | Log EC50 (Gs), CRE‐SPAP (without forskolin) (human α2C‐adrenoceptor [1]): No response | Kd (human α2C‐adrenoceptor [2]): 0.214 µM | Kd (human α2C‐adrenoceptor [2]; Log KD, CHO‐α2C): 0.214 µM | % 10 μM PDBu, ERK1/2‐phosphorylation (human α2A‐adrenoceptor [5]): 127.1 ± 13.0% | % 10 μM PDBu, ERK1/2‐phosphorylation (human α2C‐adrenoceptor [3]): 134.5 ± 17.9% | EC50 (human α2C‐adrenoceptor [3]): 11.7 nM

CNC[C@H](O)c1cccc(O)c1 [R‐phenylephrine]
% inhibition, CRE‐SPAP (with forskolin) (human α2C‐adrenoceptor [1]): 77.5 ± 3.4% | % 10 μM PDBu, ERK1/2‐phosphorylation (human α2C‐adrenoceptor [3]): 157.0 ± 15.4%

COc1ccc(OC)c(C(O)CNC(=O)CN)c1 (centres unmarked) [Midodrine]
% 10 μM PDBu, ERK1/2‐phosphorylation, response at 100 μM agonist (human α2A‐adrenoceptor [5]; CHO‐α2A, response at 100 μM): 101.0 ± 15.5% | % 10 μM PDBu, ERK1/2‐phosphorylation (human α2C‐adrenoceptor [3]; CHO‐α2C cells, response at 100 μM ligand (no EC50 given) compared to 10 μM PDBu): 80.9 ± 15.6%

CC(N)C(O)c1ccc(O)c(O)c1 (stereo not drawn) [α‐methylnorepinephrine]
% 3 μM forskolin, CRE‐SPAP (without forskolin) (human α2A‐adrenoceptor [4]): 171.1 ± 4.3% | Log EC50 (Gs), CRE‐SPAP (with forskolin) (human α2A‐adrenoceptor [4]): −5.31 ± 0.05 | Log EC50 (Gs), CRE‐SPAP (without forskolin) (human α2A‐adrenoceptor [4]): −5.29 ± 0.02 | Log IC50 (Gi), CRE‐SPAP (with forskolin) (human α2A‐adrenoceptor [4]): −6.47 ± 0.05 | % inhibition, CRE‐SPAP (with forskolin) (human α2C‐adrenoceptor [1]): 85.2 ± 3.0% | Log EC50 (Gs), CRE‐SPAP (without forskolin) (human α2C‐adrenoceptor [1]): No response | Log IC50 (Gi), CRE‐SPAP (with forskolin) (human α2C‐adrenoceptor [1]): −6.52 ± 0.12 | Log KD (apparent), CHO‐α2A (human α2A‐adrenoceptor [6]): −3.69 ± 0.04^app | Log KD (binding) (human α2A‐adrenoceptor [6]): −3.69 | Log KD (human α2C‐adrenoceptor [2]): −5.16 | % 10 μM PDBu, ERK1/2‐phosphorylation (human α2A‐adrenoceptor [5]): 142.6 ± 22.3%
